Patent EP4215195A1, “LANATOSIDE C, CLOPIDOGREL, AND R406 IN TREATMENT OF CVD-CLONAL HEMATOPOIESIS OF INDETERMINATE POTENTIAL (CVD-CHIP)” (Genome Biologics UG, priority 2022, dated 2023)

How the values were obtained:
[1] = test system: CHIP (siTET2) myeloid cells; test: Synthetic lethality screen of a CVD drug library, alamarBlue Cell Viability assay, CHIP cells; type: cell-based; details: THP-1 cells with TET2 siRNA knockdown; drugs 100 µM, 48 hours; compared with Vehicle
Procedure: (§1) The established disease model can subsequently be used for drug screening. Thus, a synthetic lethality screening of a CVD (cardiovascular disease) drug library was performed, treating CHIP (siTET2) or healthy (siScr) myeloid cells.
(§2) THP-1 cells were purchased from DSMZ (ACC 16) and maintained in RPMI-1640 (Gibco) +10% Fetal Calf Serum, 1% Penicillin/Streptomycin, 1% Glutamine, 0.05 mM 2-Mercaptoethanol.
(§3) THP-1 cells were differentiated from monocytes to macrophages by supplementing the media 100 ng/mL PMA and culturing for 48 h, and then in PMA-free media for another 24 h. For routine culturing, cells were maintained at 37°C, 5% CO2, 20% O2. In cardiopathologic culturing, both THP1 cells and organoids were maintained hypoxic conditions at 37°C, 5% CO2, 1% O2.
(§4) Transfection of THP-1 cells with siRNA purchased as ON-TARGETplus pools from Horizon Discovery (TET2 siRNA pool containing: ACAAGAAAGUAGAGGGUAU (SEQ ID NO 001), ACACCUAGUUUCAGAGAAU (SEQ ID NO 002), CCUCAGAAUAAUUGUGUGA (SEQ ID NO 003), CAGCAAAGGUACUUGAUAC (SEQ ID NO 004); Control siRNA pool containing: UGGUUUACAUGUUGUGUGA (SEQ ID NO 005), UGGUUUACAUGUUUUCCUA (SEQ ID NO 006)).
(§5) Working solution of 50µM siRNA was prepared in siRNA Buffer (ThermoFisher). 2 µL of 50µM siRNA were mixed with 500 µL OptiMEM and 6.25µL LTX Reagent PLUS (ThermoFisher) and incubated at room temperature (RT) for 15 min. 6.25 µL Lipofectamine LTX was added, mixed, and incubated for 30 min at RT. 500 µL were then added to the target culture and the culture was incubated at 37°C, 5% CO2. Passaging and/or media change was performed after 24 h.
(§6) THP-1 monocytes and macrophages were cocultured overnight (18 h) with siRNA. They were then washed with PBS and used for either TET2 knockdown quality control (as described below) or for the drug screening. For the screening, cells were transferred from tissue culture flasks to 384-well plates. Drugs were added to a final concentration of 100 µM and incubated for 48 hours. An alamarBlue Cell Viability assay (Invitrogen) with a 4 h incubation was performed according to the manufacturer's instructions.

[2] = test system: cardiac organoids infiltrated with CHIP myeloid cells; test: Gene expression (RNA levels of markers) in cardiac organoids infiltrated with CHIP myeloid cells; type: cell-based, human; details: treated vs Vehicle; normalized to healthy state = 1.0
Procedure: (§7) Macrophages were differentiated from THP1 monocytes, then treated with siRNAs (18 h incubation), washed, and labeled with Qtracker™ 655 Cell Labeling Kit (ThermoFisher) for 1 h according to the manufacturer's instructions, washed with PBS, and dissociated with 0.05% trypsin. Macrophages were then added to organoids and cultured at 37°C, 5% CO2, and 1%O2. Cultures were maintained in 96-well U-bottom plates.
(§8) Immunostaining, RNA extraction and cTNT assays were run after 3 days of culturing.

[3] = test system: healthy (siScr) myeloid cells; test: Trypan Blue Assay (cell death), healthy cells; type: cell-based
[4] = test system: healthy (siScr) myeloid cells; test: Cl. Caspase Assay (apoptosis), healthy cells; type: cell-based
[5] = test system: CHIP (siTET2) myeloid cells; test: Cl. Caspase Assay (apoptosis), CHIP cells; type: cell-based
[6] = test system: healthy (siScr) myeloid cells; test: Synthetic lethality screen of a CVD drug library, alamarBlue Cell Viability assay, healthy cells; type: cell-based; details: THP-1 cells with control siRNA; drugs 100 µM, 48 hours; compared with Vehicle
Procedure: as §1, §2, §3, §4, §5, §6

[7] = test system: CHIP (siTET2) myeloid cells; test: Trypan Blue Assay (cell death), CHIP cells; type: cell-based
[8] = test system: CHIP-infiltrated cardiac organoids (siTET2); test: Myeloid cell infiltration into cardiac organoids (Qtracker staining, coculture); details: siTET2 organoids treated vs Vehicle; baseline siScr Vehicle; hypoxic coculture, 3 days
Procedure: These MCs were utilized in the coculturing system with self-organized human cardiac organoids, where they were tracked using a Qtracker stain.
as §7, §8
After an overnight PFA fixation, the organoids were washed with PBS, then treated with 1% TritonX-100 (in PBS) for 45 minutes. Afterwards, they are incubated with PBS for 10 minutes for washing. 5% horse serum (in PBS) is added to block and incubated for 45 minutes (RT) Primary antibody in 2% horse serum + 0.0002% TritonX-100 was added and the samples were incubated at 4°C overnight. Primary antibodies: Anti-Sarcomeric-actinin (Ab68167, anti-human), Anti-Cleaved Caspase-3 (Ab32042, anti-human). Samples were washed with PBS + 0.002% TritonX-100 6x10min. Secondary antibodies and additional stains were added and incubated for 4h at RT: AlexaFlour 488 (Invitrogen, A11070), AlexaFlour 555 (Invitrogen, A21425), DAPI, Qtracker labelling 655 (Invitrogen, Q25021 MP). Samples were washed by incubating with PBS+0.002%TritonX-100 for 2-3 hours at RT), and mounted on Superfrost Plus Adhesion Slides (ThermoFisher) sing transparent polish to seal the slide sides to the coverslips (Roth). Samples were imaged using SP8 Lightning Leica Confocal Microscope, using a 40x objective (for a total of 800x and 300x magnification with zoom factors and eye lenses).

[9] = test system: CHIP-infiltrated cardiac organoids (siTET2); test: Cardiomyocyte apoptosis in cardiac organoids (Cleaved Caspase staining colocalized with α-Actinin); type: cell-based, human; details: siTET2 organoids treated vs Vehicle; healthy = siScr
Description: To assess the CM death, the inventors used cleaved caspase staining which labels apoptotic cells. […] The increase in CM death in the TET2 KD group is further verified by an increase in cardiac troponin T (cTNT), a prognostic cardiac damage clinical biomarker (* p <0.05).

[10] = test system: CHIP-infiltrated cardiac organoids (siTET2); test: cTNT assay (Human Cardiac Troponin T ELISA) in organoid coculture; type: cell-based; details: siTET2 organoids treated vs Vehicle; healthy = siScr; 3 days of culturing
Procedure: The cTNT assay was performed using the Human Cardiac Troponin T ELISA® Kit (ab223860, Abcam) following the manufacturer's instructions.

Compound	viability of CHIP myeloid cells (siTET2) [1]	RNA levels of myeloid, inflammatory, heart failure and fibrotic markers [2]	cell death of healthy (siScr) cells (Trypan Blue Assay) [3]	apoptosis of healthy (siScr) cells (CI. Caspase Assay) [4]	apoptosis of CHIP myeloid cells (CI. Caspase Assay) [5]	viability of healthy (siScr) cells [6]	levels of cell death of CHIP myeloid cells (Trypan Blue Assay) [7]	infiltration of myeloid cells into organoids (Qtracker-stained area) [8]	cardiomyocyte apoptosis levels (areas of Cleaved Caspase staining) [9]	levels of the prognostic marker cTNT [10]
COC(=O)[C@H](c1ccccc1Cl)N1CCc2sccc2C1 [Clopidogrel, clopidogrel]	selectively inhibit the viability of CHIP myeloid cells (siTET2)	rescued upon treatment with the 3 aforementioned drugs back down towards healthy levels (≤1.0)	without inflicting harm on the healthy (siScr) cells	without inflicting harm on the healthy (siScr) cells	increase the levels of cell death of CHIP myeloid cells (Trypan Blue Assay) and apoptosis in particular	without compromising the viability of healthy (siScr) cells	increase the levels of cell death of CHIP myeloid cells	decreased levels of Qtracker-stained area upon treatment of siTET2 cells back to the baseline healthy levels	decreased areas of Cleaved Caspase staining back towards healthy levels	decreased back to healthy levels
CCCSc1nc(N[C@@H]2C[C@H]2c2ccc(F)c(F)c2)c2nnn([C@@H]3C[C@H](OCCO)[C@@H](O)[C@H]3O)c2n1 [Ticagrelor]	–	–	–	–	–	also decrease the viability of healthy cells	–	–	–	–
COc1cc(Nc2ncc(F)c(Nc3ccc4c(n3)NC(=O)C(C)(C)O4)n2)cc(OC)c1OC [R406]	selectively inhibit the viability of CHIP myeloid cells (siTET2)	rescued upon treatment with the 3 aforementioned drugs back down towards healthy levels (≤1.0)	without inflicting harm on the healthy (siScr) cells	without inflicting harm on the healthy (siScr) cells	increase the levels of cell death of CHIP myeloid cells (Trypan Blue Assay) and apoptosis in particular	without compromising the viability of healthy (siScr) cells	increase the levels of cell death of CHIP myeloid cells	decreased levels of Qtracker-stained area upon treatment of siTET2 cells back to the baseline healthy levels	decreased areas of Cleaved Caspase staining back towards healthy levels	decreased back to healthy levels
CC(=O)Oc1cc(C(F)(F)F)ccc1C(=O)O [Triflusal]	–	–	–	–	–	also decrease the viability of healthy cells	–	–	–	–
C[C@H]1O[C@@H](O[C@H]2[C@@H](O)C[C@H](O[C@H]3[C@@H](O)C[C@H](O[C@H]4CC[C@@]5(C)[C@H](CC[C@@H]6[C@@H]5CC[C@]5(C)[C@@H](C7=CC(=O)OC7)CC[C@]65O)C4)O[C@@H]3C)O[C@@H]2C)C[C@H](O)[C@@H]1O [Digitoxin]	only Ginsenoside Rb1 was found to do so significantly	–	–	–	–	–	–	–	–	–
CC(C)=CCC[C@](C)(O[C@@H]1O[C@H](CO[C@@H]2O[C@H](CO)[C@@H](O)[C@H](O)[C@H]2O)[C@@H](O)[C@H](O)[C@H]1O)[C@H]1CC[C@]2(C)[C@@H]1[C@H](O)C[C@@H]1[C@@]3(C)CC[C@H](O[C@@H]4O[C@H](CO)[C@@H](O)[C@H](O)[C@H]4O[C@@H]4O[C@H](CO)[C@@H](O)[C@H](O)[C@H]4O)C(C)(C)[C@@H]3CC[C@]12C [Ginsenoside Rb1]	found to do so significantly	–	–	–	–	also decreases the viability of healthy cells	–	–	–	–
CCCCC[C@H](O)CC[C@@H]1[C@H]2Cc3cccc(OCC(=O)O)c3C[C@H]2C[C@H]1O [Treprostinil Sodium]	–	–	–	–	–	also decrease the viability of healthy cells	–	–	–	–
CC(=O)O[C@H]1C[C@H](O[C@H]2[C@@H](O)C[C@H](O[C@H]3[C@@H](O)C[C@H](O[C@H]4CC[C@@]5(C)[C@H](CC[C@@H]6[C@@H]5C[C@@H](O)[C@]5(C)[C@@H](C7=CC(=O)OC7)CC[C@]65O)C4)O[C@@H]3C)O[C@@H]2C)O[C@H](C)[C@H]1O[C@@H]1O[C@H](CO)[C@@H](O)[C@H](O)[C@H]1O [Lanatoside C, lanatoside C]	selectively inhibit the viability of CHIP myeloid cells (siTET2)	rescued upon treatment with the 3 aforementioned drugs back down towards healthy levels (≤1.0)	without inflicting harm on the healthy (siScr) cells	without inflicting harm on the healthy (siScr) cells	increase the levels of cell death of CHIP myeloid cells (Trypan Blue Assay) and apoptosis in particular	without compromising the viability of healthy (siScr) cells	increase the levels of cell death of CHIP myeloid cells	decreased levels of Qtracker-stained area upon treatment of siTET2 cells back to the baseline healthy levels	decreased areas of Cleaved Caspase staining back towards healthy levels	decreased back to healthy levels
Escin	only Ginsenoside Rb1 was found to do so significantly	–	–	–	–	–	–	–	–	–
